Test results: patent US10954488B2, “Extract of undifferentiated cells of Mimosa pudica and uses thereof in dermo-cosmetics” (PIERRE FABRE DERMO-COSMETIQUE, priority 2016, dated 2021)

Assays:
[1] = tested on: nitrite production (NO synthesis induced by iNOS) in RAW264.7 cells; experiment: Nitrite assay (Griess) in LPS-activated RAW264.7 macrophages; format: cell-based; settings: Mus musculus, 1 μM dexamethasone 1 h before 0.2 μg/mL LPS, 24 h, read-out: inhibition of nitrite production (% i)
Excerpt: (§1) In this example, we compare the anti-inflammatory activity of 2 Mimosa pudica extracts (E11 and E13). Extract E11 comes from ethyl acetate extraction of the dried and crushed Mimosa pudica leaves and extract E13 comes from extraction with the same solvent of the crushed materials derived from Mimosa pudica plant cell culture without bioconversion in an Erlenmeyer flask. The 2 extracts were weighed after evaporation of the solvent to dryness. They were taken up in DMSO. To evaluate and compare the anti-inflammatory activity of the 2 extracts in the same concentrations, we have an in vitro pharmacological test which consists in stimulating murine macrophages, RAW264.7 cells, that express on their surface the TLR4 receptor by the bacterial LPS according to (Kang et al. 2002. J Pharmacol Exp Ther. 302:138-144). Several parameters were studied and compared to a reference anti-inflammatory, dexamethasone: • nitrite production by the Griess technique. […]
The level of NO synthesis is evaluated in fresh or frozen (−80° C.) cell supernatants, without affecting the assay. The principle of the assay is based on the Griess (diazotization) reaction which produces a pink azo compound with absorbance at 540 nm.
(§2) Concentrations are expressed as averages. […]

[2] = tested on: IL-6 secretion in RAW264.7 cells; experiment: IL6 assay by ELISA in LPS-activated RAW264.7 macrophages; format: cell-based; settings: Mus musculus, 1 μM dexamethasone 1 h before 0.2 μg/mL LPS, 24 h, read-out: inhibition of IL-6 secretion (% i)
Excerpt: In this example, we compare the anti-inflammatory activity of 2 Mimosa pudica extracts (E11 and E13). Extract E11 comes from ethyl acetate extraction of the dried and crushed Mimosa pudica leaves and extract E13 comes from extraction with the same solvent of the crushed materials derived from Mimosa pudica plant cell culture without bioconversion in an Erlenmeyer flask. The 2 extracts were weighed after evaporation of the solvent to dryness. They were taken up in DMSO. To evaluate and compare the anti-inflammatory activity of the 2 extracts in the same concentrations, we have an in vitro pharmacological test which consists in stimulating murine macrophages, RAW264.7 cells, that express on their surface the TLR4 receptor by the bacterial LPS according to (Kang et al. 2002. J Pharmacol Exp Ther. 302:138-144). Several parameters were studied and compared to a reference anti-inflammatory, dexamethasone: • nitrite production by the Griess technique. The nitrite level reflects the level of NO synthesis induced by inducible […] (iNOS). • cytokine secretion: interleukin-6 by ELISA • TNF-alpha production by multiplex assay Cell Culture
RAW264.7 cells are mouse macrophages in lineage. […]
as §2

[3] = tested on: TNF-alpha production in RAW264.7 cells; experiment: TNF-alpha Luminex assay in LPS-activated RAW264.7 macrophages; format: cell-based; settings: Mus musculus, 1 μM dexamethasone 1 h before 0.2 μg/mL LPS, 24 h, read-out: inhibition of TNF-alpha production (% i)
Excerpt: as §1, with “302:138-144).” for “302:138-144). Several parameters were studied and compared to a reference anti-inflammatory, dexamethasone: • nitrite production by the Griess technique.”
Simultaneous assay of TNF-alpha in the cell supernatants was performed using the Luminex xMAP (multi-analyte profiling) technology which is based on the principles of flow cytometry and ELISA in a 96-well microplate. The microbeads used as substrate incorporate two fluorochromes in a precise ratio, which gives them an identifying colour code (different fluorescences). […] The second laser, green, (λ=532 nm) excites the reporter fluorochrome attached to the specific detection antibody in order to quantify the cytokine. […]
as §2

[4] = tested on: DEFB103A (Defensin, beta 103B); experiment: In vitro model of induced atopic dermatitis, RT-qPCR: DEFB103A; format: cell-based, human; settings: NHEK + Poly(I:C), IL4, IL13, 24 h; 0.28 mM DEXA; control NHEK = 1
Experimental: (§3) The pharmacological model was described by Castex-Rizzi et al. (Br J Dermatol. 2014. 170 Suppl 1:12-8)
(§4) PCC extracts collected from crushed, dried, standardized Mimosa pudica culture medium W01D15 (with bioconversion) were dissolved/diluted in solution in 40% EtOH at initial concentrations of 75 mg/ml. The compounds were solubilized extemporaneously for viability tests as well as at the appropriate dose in order to measure pharmacological action on the model of induced atopic dermatitis.
(§5) Normal human epidermal keratinocytes (NHEKs) from Lonza. The cells are amplified under standard culture conditions.
(§6) NHEK cells are seeded and cultured in Keratinocyte-SFM culture medium. […]
(§7) Extraction was carried out using RNABle (Eurobio) and the RNeasy Mini Kit from QIAGEN. The total RNAs extracted are assayed on a spectrophotometer (NanoDrop, ND1000, Thermo Scientific) and their qualities analysed on agarose gel.
(§8) Real-time PCR is a precise, sensitive and rapid method that allows the relative quantification of the rate of expression of a target gene relative to that of a ubiquitously expressed reference gene. This technique makes it possible to quantify messenger RNA. […] Incorporation of a fluorophore (SYBR Green) during the hybridization step of exponential amplification allows quantification and real-time monitoring of the amount of neo-formed amplification product. […]

[5] = tested on: RNASE7 (Ribonuclease, RNase A family, 7); experiment: In vitro model of induced atopic dermatitis, RT-qPCR: RNASE7; format: cell-based, human; settings: NHEK + Poly(I:C), IL4, IL13, 24 h; 0.28 mM DEXA; control NHEK = 1
Experimental: as §3, §4, §5, §6, §7, §8

[6] = tested on: S100A7 (S100 calcium binding protein A7); experiment: In vitro model of induced atopic dermatitis, RT-qPCR: S100A7; format: cell-based, human; settings: NHEK + Poly(I:C), IL4, IL13, 24 h; 0.28 mM DEXA; control NHEK = 1
Experimental: as §3, §4, §5, §6, §7, §8

[7] = tested on: TLR3 (Toll-like receptor 3); experiment: In vitro model of induced atopic dermatitis, RT-qPCR: TLR3; format: cell-based, human; settings: NHEK + Poly(I:C), IL4, IL13, 24 h; 0.28 mM DEXA; control NHEK = 1
Experimental: as §3, §4, §5, §6, §7, §8

[8] = tested on: IFNB1 (Interferon, beta 1, fibroblast); experiment: In vitro model of induced atopic dermatitis, RT-qPCR: IFNB1; format: cell-based, human; settings: NHEK + Poly(I:C), IL4, IL13, 24 h; 0.28 mM DEXA; control NHEK = 1
Experimental: as §3, §4, §5, §6, §7, §8

[9] = tested on: IL1A (Interleukin 1, alpha); experiment: In vitro model of induced atopic dermatitis, RT-qPCR: IL1A; format: cell-based, human; settings: NHEK + Poly(I:C), IL4, IL13, 24 h; 0.28 mM DEXA; control NHEK = 1
Experimental: as §3, §4, §5, §6, §7, §8

[10] = tested on: IL1B (Interleukin 1, beta); experiment: In vitro model of induced atopic dermatitis, RT-qPCR: IL1B; format: cell-based, human; settings: NHEK + Poly(I:C), IL4, IL13, 24 h; 0.28 mM DEXA; control NHEK = 1
Experimental: as §3, §4, §5, §6, §7, §8

[11] = tested on: IL4R (Interleukin 4 receptor); experiment: In vitro model of induced atopic dermatitis, RT-qPCR: IL4R; format: cell-based, human; settings: NHEK + Poly(I:C), IL4, IL13, 24 h; 0.28 mM DEXA; control NHEK = 1
Experimental: as §3, §4, §5, §6, §7, §8

[12] = tested on: TSLP (Thymic stromal lymphopoietin); experiment: In vitro model of induced atopic dermatitis, RT-qPCR: TSLP; format: cell-based, human; settings: NHEK + Poly(I:C), IL4, IL13, 24 h; 0.28 mM DEXA; control NHEK = 1
Experimental: as §3, §4, §5, §6, §7, §8

[13] = tested on: CCL13 (Chemokine (C-C motif) ligand 13); experiment: In vitro model of induced atopic dermatitis, RT-qPCR: CCL13; format: cell-based, human; settings: NHEK + Poly(I:C), IL4, IL13, 24 h; 0.28 mM DEXA; control NHEK = 1
Experimental: as §3, §4, §5, §6, §7, §8

[14] = tested on: CCL11 (Chemokine (C-C motif) ligand 11); experiment: In vitro model of induced atopic dermatitis, RT-qPCR: CCL11; format: cell-based, human; settings: NHEK + Poly(I:C), IL4, IL13, 24 h; 0.28 mM DEXA; control NHEK = 1
Experimental: as §3, §4, §5, §6, §7, §8

[15] = tested on: CCL20 (Chemokine (C-C motif) ligand 20); experiment: In vitro model of induced atopic dermatitis, RT-qPCR: CCL20; format: cell-based, human; settings: NHEK + Poly(I:C), IL4, IL13, 24 h; 0.28 mM DEXA; control NHEK = 1
Experimental: as §3, §4, §5, §6, §7, §8

[16] = tested on: CCL27 (Chemokine (C-C motif) ligand 27); experiment: In vitro model of induced atopic dermatitis, RT-qPCR: CCL27; format: cell-based, human; settings: NHEK + Poly(I:C), IL4, IL13, 24 h; 0.28 mM DEXA; control NHEK = 1
Experimental: as §3, §4, §5, §6, §7, §8

[17] = tested on: CCL5 (Chemokine (C-C motif) ligand 5); experiment: In vitro model of induced atopic dermatitis, RT-qPCR: CCL5; format: cell-based, human; settings: NHEK + Poly(I:C), IL4, IL13, 24 h; 0.28 mM DEXA; control NHEK = 1
Experimental: as §3, §4, §5, §6, §7, §8

[18] = tested on: IL15 (Interleukin 15); experiment: In vitro model of induced atopic dermatitis, RT-qPCR: IL15; format: cell-based, human; settings: NHEK + Poly(I:C), IL4, IL13, 24 h; 0.28 mM DEXA; control NHEK = 1
Experimental: as §3, §4, §5, §6, §7, §8

[19] = tested on: IL8 (Interleukin 8); experiment: In vitro model of induced atopic dermatitis, RT-qPCR: IL8; format: cell-based, human; settings: NHEK + Poly(I:C), IL4, IL13, 24 h; 0.28 mM DEXA; control NHEK = 1
Experimental: as §3, §4, §5, §6, §7, §8

[20] = tested on: CX3CL1 (Fractalkine); experiment: In vitro model of induced atopic dermatitis, RT-qPCR: CX3CL1; format: cell-based, human; settings: NHEK + Poly(I:C), IL4, IL13, 24 h; 0.28 mM DEXA; control NHEK = 1
Experimental: as §3, §4, §5, §6, §7, §8

In the case of `C[C@@H]1C[C@H]2[C@@H]3CCC4=CC(=O)C=C[C@]4(C)[C@@]3(F)[C@@H](O)C[C@]2(C)[C@@]1(O)C(=O)CO` [dexamethasone], the inhibition at 1 µM [1] is reported as 35%, the inhibition at 1 µM [2] is reported as 38% and the inhibition at 1 µM [3] is reported as 16%. The “relative expression (RQ) of DEFB103A” value [4] was 107.56, the “relative expression (RQ) of RNASE7” value [5] was 43.23 and the “relative expression (RQ) of S100A7” value [6] was 79.12. For the same molecule, the “relative expression (RQ) of TLR3” value [7] was 2.79, the “relative expression (RQ) of IFNB1” value [8] was 1.90 and the “relative expression (RQ) of IL1A” value [9] was 8.54. The “relative expression (RQ) of IL1B” value [10] was 2.63, the “relative expression (RQ) of IL4R” value [11] was 7.03 and the “relative expression (RQ) of TSLP” value [12] was 1.80. For the same molecule, the “relative expression (RQ) of CCL13” value [13] was 1.98, the “relative expression (RQ) of CCL11” value [14] was 1.14 and the “relative expression (RQ) of CCL20” value [15] was 28.94. The “relative expression (RQ) of CCL27” value [16] was 0.71, the “relative expression (RQ) of CCL5” value [17] was 49.90 and the “relative expression (RQ) of IL15” value [18] was 29.16. For the same molecule, the “relative expression (RQ) of IL8” value [19] was 7.89 and the “relative expression (RQ) of CX3CL1” value [20] was 36.63.
